Where two headings read alike, the source gives them in different places.
Legend:
glucagon receptor (GCGR) = target: T1, glucagon receptor (GCGR) (Homo sapiens, UniProt P47871); test: I125-glucagon binding assay (competition, GCGR membrane fractions)
T1 construct: expressed in transfected cells; host or cells: CHO-K1 cells overexpressing GCGR (membrane fractions)
Summary of the method: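 Membranes from CHO-K1 cells overexpressing GCGR, 7.5 μg/well in 50 mM Tris pH 7.4 with 0.5% BSA, were preincubated 5 min with serially diluted compounds, then given 0.0625 nM final I^125-glucagon for 30 min at 25° C. Bound label was filtered on PEI-coated GF/B and counted; IC50 by non-linear regression.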

[1] = target: T2, glucagon receptor (GCGR) overexpressed CHO-K1 cells or human primary hepatocytes (Homo sapiens, UniProt P47871); test: Glucagon cAMP inhibition assay (Cisbio cAMP Dynamic 2 HTRF); type: cell-based
T2 construct: expressed in transfected cells; host or cells: GCGR overexpressed CHO-K1 cells or human primary hepatocytes (endogenous receptor)
Summary of the method: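 GCGR-overexpressing CHO-K1 cells or human primary hepatocytes in HBSS with 0.1% BSA and 800 nM IBMX, pre-incubated 30 min with serially diluted compounds (1% DMSO final), then stimulated 30 min at room temperature with glucagon at its EC50. cAMP measured by HTRF after 60 min lysis; IC50 by non-linear regression.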

T1 sequence (P47871 26-477): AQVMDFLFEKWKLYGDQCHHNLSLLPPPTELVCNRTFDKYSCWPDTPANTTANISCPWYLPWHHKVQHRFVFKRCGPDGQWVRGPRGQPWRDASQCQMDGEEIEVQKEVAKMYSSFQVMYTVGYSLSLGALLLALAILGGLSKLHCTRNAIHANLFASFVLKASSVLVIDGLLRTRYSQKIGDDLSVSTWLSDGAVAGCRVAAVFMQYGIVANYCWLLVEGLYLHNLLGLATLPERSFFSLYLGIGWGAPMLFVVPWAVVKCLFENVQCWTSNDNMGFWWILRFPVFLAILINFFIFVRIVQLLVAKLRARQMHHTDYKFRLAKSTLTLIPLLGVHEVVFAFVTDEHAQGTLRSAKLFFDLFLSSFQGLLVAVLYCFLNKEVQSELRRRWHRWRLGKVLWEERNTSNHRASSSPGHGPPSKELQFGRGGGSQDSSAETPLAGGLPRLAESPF
T2 sequence (P47871 26-477): as above

Compound	IC50 (glucagon receptor (GCGR)) [µM]	IC50 cAMP [1] [nM]	IC50 (glucagon receptor (GCGR); uM) [µM]	IC50 (glucagon receptor (GCGR); competition with I125-glucagon 0.0625 nM, membrane fractions of GCGR overexpressed CHO-K1 cells) [µM]	IC50 cAMP ([1]; inhibition of glucagon (EC50 concentration) induced cAMP production) [nM]
CC[C@H](C)[C@@H](COc1ccc(-c2ccc(C(F)(F)F)cc2F)cn1)Nc1ccc(C(=O)NCCC(=O)O)cc1 [Compound 15-14, 3-(4-(((2S,3S)-1-((5-(2-fluoro-4-(trifluoromethyl)phenyl)pyridin-2-yl)oxy)-3-methylpentan-2-yl)amino)benzamido)propanoic Acid]	0.379	280.6	–	–	–
CC(C)C[C@@H](COc1ccc(-c2ccc(C(F)(F)F)cc2Cl)cn1)Nc1ccc(C(=O)NCCS(=O)(=O)O)cc1 [Compound 15-18]	1.31	>30000	–	–	–
CC(C)C[C@@H](COc1ccc(-c2ccc(C(F)(F)F)nn2)cn1)Nc1ccc(C(=O)NCCC(=O)O)cc1 [Compound 15-19, (S)-3-(4-((4-methyl-1-((5-(6-(trifluoromethyl)pyridazin-3-yl)pyridin-2-yl)oxy)pentan-2-yl)amino)benzamido)propanoic Acid]	2.99	>30000	–	–	–
CC[C@H](C)[C@@H](COc1ccc(-c2ccc(F)cc2F)cn1)Nc1ccc(C(=O)NCCS(=O)(=O)O)cc1 [Compound 15-21, 2-(4-(((2S,3S)-1-((5-(2,4-difluorophenyl)pyridin-2-yl)oxy)-3-methylpentan-2-yl)amino)benzamido)ethane-1-sulfonic Acid]	5.28	>30000	–	–	–
O=C(O)CCNC(=O)c1ccc(N[C@H](COc2ccc(C(F)(F)F)cn2)c2ccc(-c3ccc(C(F)(F)F)cc3)cc2)cc1 [Compound 15-27, (S)-3-(4-((1-(4′-(trifluoromethyl)-[1,1′-biphenyl]-4-yl)-2-((5-(trifluoromethyl)pyridin-2-yl)oxy)ethyl)amino)benzamido)propanoic Acid]	0.101	316	–	–	–
O=C(NCCS(=O)(=O)O)c1ccc(N[C@H](COc2ccc(-c3cc4ccccc4o3)cn2)c2ccc(-c3ccc(C(F)(F)F)cc3)cc2)cc1 [Compound 15-28, (S)-2-(4-((2-((5-(benzofuran-2-yl)pyridin-2-yl)oxy)-1-(4′-(trifluoromethyl)-[1,1′-biphenyl]-4-yl)ethyl)amino)benzamido)ethane-1-sulfonic Acid]	0.1	11647	–	–	–
CC(C)(C)c1nnc(-c2ccc(OC[C@@H](Nc3ccc(C(=O)NCCC(=O)O)cc3)c3ccc(-c4ccc(C(F)(F)F)cc4)cc3)nc2)o1 [Compound 15-30, (S)-3-(4-((2-((5-(5-(tert-butyl)-1,3,4-oxadiazol-2-yl)pyridin-2-yl)oxy)-1-(4′-(trifluoromethyl)-[1,1′-biphenyl]-4-yl)ethyl)amino)benzamido)propanoic Acid]	2	18257	–	–	–
CCOC(=O)CCNC(=O)c1ccc(N[C@H](COc2ccc(-c3nnc(C(C)(C)C)o3)cn2)c2ccc(-c3ccc(C(F)(F)F)cc3F)cc2)cc1 [Compound 15-31, Ethyl (S)-3-(4-((2-((5-(5-(tert-butyl)-1,3,4-oxadiazol-2-yl)pyridin-2-yl)oxy)-1-(2′-fluoro-4′-(trifluoromethyl)-[1,1′-biphenyl]-4-yl)ethyl)amino)benzamido)propanoate]	> 30	>30000	–	–	–
CC(C)(C)c1nnc(-c2ccc(OC[C@@H](Nc3ccc(C(=O)NCCC(=O)O)cc3)c3ccc(-c4ccc(C(F)(F)F)cc4F)cc3)nc2)o1 [Compound 15-32, (S)-3-(4-((2-((5-(5-(tert-butyl)-1,3,4-oxadiazol-2-yl)pyridin-2-yl)oxy)-1-(2′-fluoro-4′-(trifluoromethyl)-[1,1′-biphenyl]-4-yl)ethyl)amino)benzamido)propanoic Acid]	0.151	809	–	–	–
CCOC(=O)CCNC(=O)c1ccc(N[C@H](COc2ccc(-c3nnc(C(C)(C)C)o3)cn2)c2ccc(-c3ccc(Cl)cc3Cl)cc2)cc1 [Compound 15-33, Ethyl (S)-3-(4-((2-((5-(5-(tert-butyl)-1,3,4-oxadiazol-2-yl)pyridin-2-yl)oxy)-1-(2′,4′-dichloro-[1,1′-biphenyl]-4-yl)ethyl)amino)benzamido)propanoate]	> 30	>30000	–	–	–
CC(C)(C)c1nnc(-c2ccc(OC[C@@H](Nc3ccc(C(=O)NCCC(=O)O)cc3)c3ccc(-c4ccc(Cl)cc4Cl)cc3)nc2)o1 [Compound 15-34, (S)-3-(4-((2-((5-(5-(tert-butyl)-1,3,4-oxadiazol-2-yl)pyridin-2-yl)oxy)-1-(2′,4′-dichloro-[1,1′-biphenyl]-4-yl)ethyl)amino)benzamido)propanoic Acid]	3	4558	–	–	–
COc1cnc(-c2ccc([C@@H](COc3ccc(-c4cc5ccccc5o4)cn3)Nc3ccc(C(=O)NCCS(=O)(=O)O)cc3)cc2)nc1 [Compound 15-35, (S)-2-(4-((2-((5-(benzofuran-2-yl)pyridin-2-yl)oxy)-1-(4-(5-methoxypyrimidin-2-yl)phenyl)ethyl)amino)benzamido)ethane-1-sulfonic Acid]	0.584	>30000	–	–	–
CC(C)[C@@H](COc1ccc(-c2ccc(Cl)cc2Cl)cn1)Nc1ccc(C(=O)NCCC(=O)O)cn1 [Compound 16-1, (S)-3-(6-((1-((5-(2,4-dichlorophenyl)pyridin-2-yl)oxy)-3-methylbutan-2-yl)amino)nicotinamido)propanoic Acid]	–	–	–	0.215	357.2

Results, then the compound that gave them:

IC50 (glucagon receptor (GCGR)) [µM]	IC50 cAMP [1] [nM]	IC50 (glucagon receptor (GCGR); uM) [µM]	IC50 (glucagon receptor (GCGR); competition with I125-glucagon 0.0625 nM, membrane fractions of GCGR overexpressed CHO-K1 cells) [µM]	IC50 cAMP ([1]; inhibition of glucagon (EC50 concentration) induced cAMP production) [nM]	Compound
0.207	32.73	–	–	–	CC[C@H](C)[C@@H](COc1ccc(-c2cc3ccccc3o2)cn1)Nc1ccc(C(=O)NCCC(=O)O)cc1 [Compound 15-15, 3-(4-(((2S,3S)-1-((5-(benzofuran-2-yl)pyridin-2-yl)oxy)-3-methylpentan-2-yl)amino)benzamido)propanoic Acid]
0.669	999	–	–	–	CC(C)C[C@@H](COc1ccc(-c2ccc(C(F)(F)F)cc2F)cn1)Nc1ccc(C(=O)NCCC(=O)O)cc1 [Compound 15-16, (S)-3-(4-((1-((5-(2-fluoro-4-(trifluoromethyl)phenyl)pyridin-2-yl)oxy)-4-methylpentan-2-yl)amino)benzamido)propanoic Acid]
0.216	196	–	–	–	CC(C)[C@@H](COc1ccc(-c2ccc(Cl)cc2Cl)cn1)Nc1ccc(C(=O)NCCC(=O)O)cc1 [Compound 15-17, (S)-3-(4-((1-((5-(2,4-dichlorophenyl)pyridin-2-yl)oxy)-3-methylbutan-2-yl)amino)benzamido)propanoic Acid]
0.382	1255	–	–	–	CC[C@H](C)[C@@H](COc1ccc(-c2ccc(F)cc2F)cn1)Nc1ccc(C(=O)NCCC(=O)O)cc1 [Compound 15-20, 3-(4-(((2S,3S)-1-((5-(2,4-difluorophenyl)pyridin-2-yl)oxy)-3-methylpentan-2-yl)amino)benzamido)propanoic Acid]
0.089	168	–	–	–	CCCC[C@@H](COc1ccc(-c2cc3ccccc3o2)cn1)Nc1ccc(C(=O)NCCC(=O)O)cc1 [Compound 15-22, (S)-3-(4-((1-((5-(benzofuran-2-yl)pyridin-2-yl)oxy)hexan-2-yl)amino)benzamido)propanoic Acid]
0.453	>30000	–	–	–	CCCC[C@@H](COc1ccc(-c2cc3ccccc3o2)cn1)Nc1ccc(C(=O)NCCS(=O)(=O)O)cc1 [Compound 15-23, (S)-2-(4-((1-((5-(benzofuran-2-yl)pyridin-2-yl)oxy)hexan-2-yl)amino)benzamido) ethane-1-sulfonic Acid]
0.301	293.9	–	–	–	CCCC[C@@H](COc1ccc(-c2ccc(Cl)cc2Cl)cn1)Nc1ccc(C(=O)NCCC(=O)O)cc1 [Compound 15-24, (S)-3-(4-((1-((5-(2,4-dichlorophenyl)pyridin-2-yl)oxy)hexan-2-yl)amino)benzamido)propanoic Acid]
0.218	245	–	–	–	CCCC[C@@H](COc1ccc(-c2ccc(C(F)(F)F)cc2Cl)cn1)Nc1ccc(C(=O)NCCC(=O)O)cc1 [Compound 15-25, (S)-3-(4-((1-((5-(2-chlor-4-(trifluoromethyl)phenyl)pyridin-2-yl)oxy)hexan-2-yl)amino)benzamido)propanoic Acid]
0.228	206.6	–	–	–	CCCC[C@@H](COc1ccc(-c2ccc(C(F)(F)F)cc2F)cn1)Nc1ccc(C(=O)NCCC(=O)O)cc1 [Compound 15-26, (S)-3-(4-((1-((5-(2-fluoro-4-(trifluoromethyl)phenyl)pyridin-2-yl)oxy)hexan-2-yl)amino)benzamido)propanoic Acid]
0.02	107	–	–	–	O=C(O)CCNC(=O)c1ccc(N[C@H](COc2ccc(-c3cc4ccccc4o3)cn2)c2ccc(-c3ccc(C(F)(F)F)cc3)cc2)cc1 [Compound 15-29, (S)-3-(4-((2-((5-(benzofuran-2-yl)pyridin-2-yl)oxy)-1-(4′-(trifluoromethyl)-[1,1′-biphenyl]-4-yl)ethyl)amino)benzamido)propanoic Acid]
–	1973	> 30	–	–	CCOC(=O)CCNC(=O)c1ccc(N[C@H](COc2ccc(-c3nc4ccccc4s3)cn2)C(C)C)cc1 [Compound 15-36, Ethyl (S)-3-(4-((1-((5-(benzo[d]thiazol-2-yl)pyridin-2-yl)oxy)-3-methylbutan-2-yl)amino)benzamido)propanoate]
0.468	1609	–	–	–	CC(C)[C@@H](COc1ccc(-c2nc3ccccc3s2)cn1)Nc1ccc(C(=O)NCCC(=O)O)cc1 [Compound 15-37, (S)-3-(4-((1-((5-(benzo[d]thiazol-2-yl)pyridin-2-yl)oxy)-3-methylbutan-2-yl)amino)benzamido)propanoic Acid]
